Measurements reported in patent EP1625854B1, “Albumin conjugates containing a glucuronic linker” (Deutsches Krebsforschungszentrum Stiftung des öffentlichen …, priority 2004, dated 2006).

Legend:
WEHI-7 cells = assay: Induction of cell death in glucocorticoid-sensitive WEHI-7 cells (propidium iodide staining, fluorimetric analysis); type: cell-based, mouse
Experimental: Cell death in glucocorticoid-sensitive WEHI-7 cells was induced by incubation with low molecular hydrocortisone (HC) and albumin-coupled hydrocortisone (hydrocortisone-21-β-D-glucuronide-HSA; HCG-HSA) over a period of 72 h. Different albumin concentrations were equalized by addition of free HSA. Dead cells were determined by fluorimetric analysis (staining with propidium iodide (PI)). […] Since the albumin conjugate was taken up by the cells via endocytosis (whereas the free HC passes the cell membrane via diffusion) HCG-HSA has to be applied in a two-fold concentration for achieving the same effect.

[1] = system: synovial fibroblasts (sFb); assay: Release of a fluorescent aglycon (methyl umbelliferon) from MUG-HSA in human synovial fibroblasts; type: cell-based
Excerpt: (§1) The amounts given in the Figure relate to 1 well and the methyl umbelliferon glucuronide within the HSA conjugate. After addition of 1 M NaOH methyl umbelliferon was fluorimetrically determined in the cell subernatant at 448 nm with an excitation at 360 nm. […] Thus, despite its coupling to albumin MUG-HSA is a substrate for human synovial fribroblasts. MUG-(HSA) is stable in medium without cells.

[2] = Stability of MUG-HSA in medium without cells; type: in vitro ADME
Excerpt: as §1

Substance | concentration for achieving the same effect (WEHI-7 cells; HCG-HSA relative to free HC, WEHI-7 cells, 72 h) | activity as a glucocorticoid (WEHI-7 cells; despite coupling to albumin, WEHI-7 cells, 72 h) | Cell death (WEHI-7 cells; incubation over 72 h, albumin concentrations equalized with free HSA, dead cells by PI staining, Figure 3) | cleavage of fluorescent methyl umbelliferon ([1]; in conditioned medium of synovial fibroblasts) | Cleavage ([1]; incubation for 24 h in synovial fibroblasts, methyl umbelliferon fluorimetrically determined in supernatant at 448 nm, excitation 360 nm, Figure 4) | stability in medium [2]
hydrocortisone-21-β-D-glucuronide-HSA [HCG-HSA] | two-fold | keeps its activity | dose dependent cell death |  |  | 
methyl umbelliferon glucuronide-HSA [MUG-HSA] |  |  |  | could be demonstrated | could be demonstrated | stable
